Results as given in patent US11285161B2, “Method and composition for treating mental disorder and pain associated with nerve damage” (City University of Hong Kong, priority 2019, dated 2022).

Tests used:
[1] = system: spared nerve injury (SNI) mice; assay: Von Frey filament test in SNI mice; assay type: in vivo, mouse; conditions: Day 8 (after drug injection), FIG. 2
From the text: (§1) The antidepressant and analgesic activities of the compound of formula (IIb) (referred to as YM022) and the compound of formula (IIIb) (referred to as YF476) were investigated in a mouse model of spared nerve injury (SNI). The SNI model is a partial denervation model in which the injured nerves produce consistent pain hypersensitivity in the territory of the spared sural nerve, wherein the spared nerve injury can provoke depressive-like behaviors. In the experiment, depressive-like behaviors were assessed by a tail suspension test and monitoring body weight. Responses to pain were tested by measuring the sensitivity to mechanical stimulation by von Frey filaments.
For the SNI surgery, the mice were anesthetized by intraperitoneal injection of ketamine (100 mg/kg) and xylazine (15 mg/kg). The skin on the lateral surface of the left thigh was cleaned and incised, and then sterile scissors were used to expose three branches of the sciatic nerves: namely sural, common peroneal, and tibial nerves. […]
The Von Frey filament test was used 1 day before the surgery (Day-1) or on Day 1, Day 7 (after drug injection), Day 8 (after drug injection) to estimate the sensitivity of the mice to the mechanical stimulation. […] Response in three out of five stimuli was regarded as a positive reaction and the threshold level was recorded (FIG. 2).

[2] = system: spared nerve injury (SNI) mice; assay: Tail suspension test in spared nerve injury (SNI) mice; assay type: in vivo, mouse; conditions: 30 ng/kg Day 7-Day 30, tested Day 40 (10 days after discontinuation), vs SNI-saline and Sham-saline, FIG. 1A
From the text: as §1
(§2) For the SNI surgery, the mice were anesthetized by intraperitoneal injection of ketamine (100 mg/kg) and xylazine (15 mg/kg). […]
(§3) After SNI surgery (Day 0), the mice were treated with the compound of formula (IIb) (referred to as YM022) and the compound of formula IIIb (referred to as YF476), both at 30 ng/kg, for 24 days (Day 7-Day 30). The bodyweight of the mice were measured (FIG. 1B) and the tail suspension test (FIG. 1A) was carried out on Day 40 to assess the depressive status. […] A blinded observer monitored the test for 6 min and recorded the immobility time.

mice [3] = assay: Acute tail suspension test; assay type: in vivo, mouse; conditions: 3 μg/kg or 30 μg/kg intraperitoneally 30 minutes before test, vs saline, FIG. 3A
Experimental: After SNI surgery (Day 0), the mice were treated with the compound of formula (IIb) (referred to as YM022) and the compound of formula IIIb (referred to as YF476), both at 30 ng/kg, for 24 days (Day 7-Day 30). The bodyweight of the mice were measured (FIG. 1B) and the tail suspension test (FIG. 1A) was carried out on Day 40 to assess the depressive status. In the tail suspension test, each mouse was suspended by its tail and secured by adhesive tape to the suspension bar. A blinded observer monitored the test for 6 min and recorded the immobility time.
In another acute tail suspension test, mice were injected intraperitoneally with YM022 (3 μg/kg or 30 μg/kg), YF476 (3 μg/kg or 30 μg/kg) or saline 30 minutes before the test. The tail suspension test was then performed as described above.

mice [4] = assay: Acute forced swim test; assay type: in vivo, mouse; conditions: 30 μg/kg intraperitoneally 30 minutes before test, 5-minute test, vs saline, FIG. 3B
Experimental: In the forced swim test, mice were forced to swim in a narrow cylinder from which they cannot escape. A Plexiglas cylinder (13 cm diameter and 24 cm high) containing water (22° C.±2° C.) to a depth of 10 cm was used. The mice were injected intraperitoneally with YM022 (30 μg/kg), YF476 (30 μg/kg) or saline 30 minutes before the test. After placing the animals in the cylinders, the duration of immobility during the 5-minute test were measured.

CCK1 receptor = target: T1, CCK1 receptor (Homo sapiens, UniProt P32238); conditions: read-out: IC50 to the CCK1 receptor; cited from earlier work
T1 sequence (P32238 1-428): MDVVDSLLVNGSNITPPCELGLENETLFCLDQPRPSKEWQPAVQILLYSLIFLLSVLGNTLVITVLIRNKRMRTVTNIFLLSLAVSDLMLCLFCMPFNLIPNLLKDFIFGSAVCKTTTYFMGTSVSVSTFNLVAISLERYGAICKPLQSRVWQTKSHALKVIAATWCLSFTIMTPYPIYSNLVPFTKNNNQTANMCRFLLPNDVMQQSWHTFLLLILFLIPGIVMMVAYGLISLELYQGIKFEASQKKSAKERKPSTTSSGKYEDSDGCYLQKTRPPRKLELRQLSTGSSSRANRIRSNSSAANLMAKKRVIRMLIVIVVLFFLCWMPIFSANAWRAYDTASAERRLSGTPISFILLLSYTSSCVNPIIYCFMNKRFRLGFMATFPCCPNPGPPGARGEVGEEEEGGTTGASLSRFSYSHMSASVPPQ

[5] = system: spared nerve injury (SNI) mice; assay: Body weight of SNI mice; assay type: in vivo, mouse; conditions: 30 ng/kg Day 7-Day 30, Day 40, vs SNI-saline, FIG. 1B
From the text: as §1, §2, §3

CCK2 receptor [6] = target: T2, CCK2 receptor (Homo sapiens, UniProt P32239); conditions: cited from earlier work
T2 sequence (P32239 1-447): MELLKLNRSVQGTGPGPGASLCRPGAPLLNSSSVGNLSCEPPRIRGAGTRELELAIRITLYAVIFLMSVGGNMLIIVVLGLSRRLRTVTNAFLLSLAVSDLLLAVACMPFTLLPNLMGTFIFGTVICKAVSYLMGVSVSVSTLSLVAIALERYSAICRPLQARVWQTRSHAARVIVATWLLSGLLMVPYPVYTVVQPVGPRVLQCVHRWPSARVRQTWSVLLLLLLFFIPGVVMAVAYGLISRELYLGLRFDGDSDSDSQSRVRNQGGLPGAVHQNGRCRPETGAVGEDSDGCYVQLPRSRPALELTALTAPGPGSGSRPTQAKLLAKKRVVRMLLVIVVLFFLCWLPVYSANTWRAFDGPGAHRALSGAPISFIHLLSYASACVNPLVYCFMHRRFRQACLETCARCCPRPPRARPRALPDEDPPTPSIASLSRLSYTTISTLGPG

CCK2 receptor [7] = target: T2, CCK2 receptor

## CNc1cccc(NC(=O)N[C@@H]2N=C(c3ccccn3)c3ccccc3N(CC(=O)C(C)(C)C)C2=O)c1 [YF476]
[1]
  mechanical threshold in Von Frey filament test: higher mechanical threshold
[2]
  immobile time in tail suspension test: reduced immobile time
Mice [3]
  immobile time in acute tail suspension test: less immobile time
Mice [4]
  immobile time in forced swim test: less immobile time
CCK1 receptor
  IC50: 500 nM
[5]
  body weight: increased body weight
CCK2 receptor [6]
  IC50: 0.11 nM
CCK2 receptor [7]
  selectivity CCK2 versus CCK1 receptor: selectively inhibit CCK2 receptors

## Cc1cccc(NC(=O)N[C@@H]2N=C(c3ccccc3)c3ccccc3N(CC(=O)c3ccccc3C)C2=O)c1 [YM022]
[1]
  mechanical threshold in Von Frey filament test: higher mechanical threshold
[2]
  immobile time in tail suspension test: reduced immobile time
Mice [3]
  immobile time in acute tail suspension test: less immobile time
Mice [4]
  immobile time in forced swim test: less immobile time
CCK1 receptor
  IC50: 63 nM
[5]
  body weight: increased body weight
CCK2 receptor [6]
  IC50: 0.07 nM
CCK2 receptor [7]
  selectivity CCK2 versus CCK1 receptor: selectively inhibit CCK2 receptors
